The record followed here is ChEMBL document CHEMBL3085678, “3-Azatetracyclo[5.2.1.1(5,8).0(1,5)]undecane derivatives: from wild-type inhibitors of the M2 ion channel of influenza A virus to derivatives with potent activity against the V27A mutant” (J Med Chem, 2013).

Data set [1] relates to Influenza A virus (A/udorn/1972(H3N2)). The class given is cell membranes. The note with it: 100 uM.
For another data set, the system named is Coxsackievirus B4. The experiment in a line: Antiviral activity against Coxsackievirus B4. The class given is functional, organism-based.
Data set [2] deals with Vesicular stomatitis virus. The experiment in a line: Antiviral activity against Vesicular stomatitis virus. The class given is functional, organism-based.
Data set [3] concerns Respiratory syncytial virus. The experiment in a line: Antiviral activity against Respiratory syncytial virus. The class given is functional, organism-based.
For data set [4], the system named is Mammalian orthoreovirus 1. The experiment in a line: Antiviral activity against Reovirus-1. The class given is functional, organism-based.
The test system of a further data set is Sindbis virus. The experiment in a line: Antiviral activity against Sindbis virus. The class given is functional, organism-based.
For another data set, the system named is Feline coronavirus. The experiment in a line: Antiviral activity against Feline coronavirus. The class given is functional, organism-based.
A further data set has as its system Vaccinia virus. The experiment in a line: Antiviral activity against Vaccinia virus. The class given is functional, organism-based. The note with it: Orthopoxvirus vaccinia.
A further data set concerns Human alphaherpesvirus 2. The experiment in a line: Antiviral activity against Herpes simplex virus type 2. The class given is functional, organism-based.
The subject of another data set is Human alphaherpesvirus 1. The experiment in a line: Antiviral activity against Herpes simplex virus type 1. The class given is functional, organism-based.
Another data set has as its system Punta Toro virus. The experiment in a line: Antiviral activity against Punta Toro virus. The class given is functional, organism-based.
Another data set relates to Human respirovirus 3. The experiment in a line: Antiviral activity against Parainfluenza-3 virus. The class given is functional, organism-based.
For another data set, the system named is MDCK. The experiment in a line: Cytotoxicity against MDCK cells after 72 hrs by MTS assay. The class given is cell-based, Canis lupus familiaris. The note with it: dog. (In general: Tetrazolium assays rely on reduction of a dye to a coloured formazan, in cell work by metabolically active cells.)
The nature of data set [5]: Cytotoxicity against MDCK cells assessed as minimum cytotoxic concentration after 72 hrs by MTS assay. The class given is cell-based, Canis lupus familiaris. The note with it: dog.
Data set [6] can be described thus: Cytotoxicity against MDCK cells assessed as minimum cytotoxic concentration after 24 hrs by MTS assay. The class given is cell-based, Canis lupus familiaris. The following applies: dog.

Each structure is given as a SMILES string. The source made the active and inactive calls. No cut-off for these calls is given here.

Broadly, the inhibition is the drop in the measured response relative to a control, in per cent. Low values mean little suppression, high ones strong suppression. As to `C1C2C1C1C3C4C5C6CC6C4C14CNCC54C23` (stereo not drawn), the inhibition in [1] is 86.5%. For the same compound, the result (in the data set on Coxsackievirus B4; in [2]; in data set [3]; in data set [4]; in the data set on Sindbis virus; with Feline coronavirus) was inactive. The outcome in the data set with Vaccinia virus, with Human alphaherpesvirus 2, in the data set with Human alphaherpesvirus 1, in the data set with Punta Toro virus and in the data set with Human respirovirus 3 was inactive.

In turn, `CC12CC3CC1(C)CC3(CN)C2` showed an inhibition in data set [1] of 97.3%. In addition, the outcome (in the data set with Coxsackievirus B4; in [2]; in data set [3]; in data set [4]; in the data set with Sindbis virus; in the data set with Feline coronavirus) was inactive. Further, the result in the data set with Vaccinia virus, in the data set on Human alphaherpesvirus 2, in the data set with Human alphaherpesvirus 1, with Punta Toro virus and in the data set with Human respirovirus 3 was inactive.

One may read the CC50 as the concentration at which the toxic effect on the cells reaches its halfway point. `N=C(N)N1CC23CC45CCCCC4(C2)CC3(C1)C5`: the inhibition in [1] was determined as 93.1%. The compound also yielded a 50% cytotoxic concentration (CC50) with MDCK of 3.1 µM. For the same compound, the outcome (in the data set on Coxsackievirus B4; in data set [2]; in data set [3]; in data set [4]; with Sindbis virus; in the data set with Feline coronavirus) was inactive. Further, the result with Vaccinia virus, in the data set on Human alphaherpesvirus 2, in the data set on Human alphaherpesvirus 1, with Punta Toro virus and in the data set with Human respirovirus 3 was inactive. For the same compound, the MCC at 72 h in data set [5] stood at 4 µM. The MCC at 24 h in data set [6] was at least 10 µM.

Regarding `NCC12C3CCC4C3C3C(CCC31)C42`, the inhibition in data set [1] is 12.8%. For the same compound, the outcome (in the data set on Coxsackievirus B4; in data set [2]; in data set [3]; in data set [4]; with Sindbis virus; in the data set on Feline coronavirus) was inactive. Further, the outcome with Vaccinia virus, in the data set with Human alphaherpesvirus 2, with Human alphaherpesvirus 1, in the data set on Punta Toro virus and with Human respirovirus 3 was inactive.

As for `NC12C3CCC4C3C3C(CCC31)C42`, in data set [1], the inhibition came to 4.8%. The outcome (in the data set with Coxsackievirus B4; in data set [2]; in data set [3]; in [4]; in the data set on Sindbis virus; with Feline coronavirus) was inactive. In addition, the outcome in the data set with Vaccinia virus, in the data set on Human alphaherpesvirus 2, with Human alphaherpesvirus 1, with Punta Toro virus and with Human respirovirus 3 was inactive.

Consider `CN1CC23CC4CC2(CC4C3)C1`, for which the inhibition in [1] was 88.3%. This compound also gave a CC50 in the data set on MDCK of over 100 µM. Also, the result (in the data set with Coxsackievirus B4; in data set [2]; in [3]; in data set [4]; with Sindbis virus; with Feline coronavirus) was inactive. Further, the result in the data set with Vaccinia virus, with Human alphaherpesvirus 2, in the data set on Human alphaherpesvirus 1, in the data set on Punta Toro virus and in the data set with Human respirovirus 3 was inactive. Further, in data set [5], the MCC at 72 h is at least 100 µM.

In data set [1], `C1CCC23CC45CNCC4(CC2(C1)C5)C3` gave an inhibition of 85.3%. This compound showed a CC50 with MDCK of 6.8 µM. In addition, the outcome (with Coxsackievirus B4; in [2]; in data set [3]; in [4]; in the data set on Sindbis virus; in the data set with Feline coronavirus) was inactive. In addition, the result in the data set with Vaccinia virus, with Human alphaherpesvirus 2, in the data set with Human alphaherpesvirus 1, with Punta Toro virus and in the data set with Human respirovirus 3 was inactive. In data set [5], the MCC at 72 h turned out to be 4 µM. Moreover, in [6], the MCC at 24 h is over 50 µM.

`CC(N)C12CC3CC(CC(C3)C1)C2` (stereo not drawn) [RIMANTADINE]: in the data set on MDCK, the CC50 is 203 µM. In addition, in [5], the MCC at 72 h was determined as 500 µM. For the same compound, the MCC at 24 h in data set [6] was at least 500 µM.

Consider `C1=CC2C3C4C5C=CC4C24CNCC54C13`, for which the result (with Coxsackievirus B4; in [2]; in [3]; in data set [4]; in the data set with Sindbis virus; in the data set with Feline coronavirus) was inactive. In addition, the result with Vaccinia virus, with Human alphaherpesvirus 2, with Human alphaherpesvirus 1, in the data set on Punta Toro virus and in the data set with Human respirovirus 3 was inactive.

Consider `CCC12CC34CNCC3(C1)CC2(CC)C4`, for which, in data set [1], the inhibition came out at 65%. The 50% cytotoxic concentration (CC50) in the data set on MDCK was found to be 49 µM. Besides, the result (in the data set with Coxsackievirus B4; in data set [2]; in data set [3]; in data set [4]; in the data set on Sindbis virus; in the data set with Feline coronavirus) was inactive. The result in the data set on Vaccinia virus, with Human alphaherpesvirus 2, in the data set with Human alphaherpesvirus 1, in the data set on Punta Toro virus and in the data set on Human respirovirus 3 was inactive. Moreover, the MCC at 72 h in data set [5] turned out to be 20 µM.

For `NC12CC3CC(CC(C3)C1)C2` [AMANTADINE], the inhibition in data set [1] worked out at 91%. The compound also displayed a 50% cytotoxic concentration (CC50) in the data set with MDCK of over 500 µM. Besides, the MCC at 72 h in data set [5] was over 500 µM. In addition, the MCC at 24 h in data set [6] is at least 500 µM.

Regarding `CC12CC3CC1(C)CC3(N)C2`, the inhibition in data set [1] was 93.6%. Besides, the outcome (with Coxsackievirus B4; in [2]; in [3]; in data set [4]; in the data set on Sindbis virus; with Feline coronavirus) was inactive. Also, the result in the data set with Vaccinia virus, in the data set with Human alphaherpesvirus 2, with Human alphaherpesvirus 1, in the data set with Punta Toro virus and with Human respirovirus 3 was inactive.

In the case of `CN1CC23CC4(C)CC2(C1)CC4(C)C3`, the inhibition in data set [1] was found to be 87.9%. The CC50 in the data set on MDCK is 49 µM. Besides, the result (in the data set with Coxsackievirus B4; in data set [2]; in data set [3]; in data set [4]; in the data set on Sindbis virus; in the data set on Feline coronavirus) was inactive. Besides, the outcome in the data set with Vaccinia virus, in the data set on Human alphaherpesvirus 2, with Human alphaherpesvirus 1, in the data set on Punta Toro virus and in the data set with Human respirovirus 3 was inactive. For the same compound, the MCC at 72 h in [5] was at least 20 µM.

In turn, `CC12CC34CNCC3(C1)CC2(C)C4` had an inhibition in data set [1] of 93.8%. In the data set on MDCK, this compound came in with a CC50 of 59 µM. Also, the result (with Coxsackievirus B4; in data set [2]; in data set [3]; in [4]; in the data set with Sindbis virus; in the data set with Feline coronavirus) was inactive. Moreover, the result in the data set with Vaccinia virus, in the data set on Human alphaherpesvirus 2, in the data set on Human alphaherpesvirus 1, with Punta Toro virus and with Human respirovirus 3 was inactive. Moreover, the MCC at 72 h in data set [5] stood at 100 µM.

Turning to `CCC12CC34CN(C(=N)N)CC3(C1)CC2(CC)C4`, the inhibition in data set [1] came to 42.8%. Also, it took 6.2 µM to reach half-maximal cytotoxicity in the data set on MDCK (CC50). The outcome (with Coxsackievirus B4; in data set [2]; in data set [3]; in data set [4]; in the data set with Sindbis virus; in the data set on Feline coronavirus) was inactive. The result in the data set with Vaccinia virus, in the data set on Human alphaherpesvirus 2, in the data set on Human alphaherpesvirus 1, with Punta Toro virus and in the data set on Human respirovirus 3 was inactive. The MCC at 72 h in data set [5] was determined as 4 µM.

As to `NC(=O)c1ncn([C@@H]2O[C@H](CO)[C@@H](O)[C@H]2O)n1` [RIBAVIRIN], the MCC at 24 h in data set [6] was over 100 µM.

As to `C1NCC23CC4CC12CC4C3`, the inhibition in data set [1] stood at 93.9%. The same compound showed a CC50 in the data set with MDCK of at least 59 µM. Also, the outcome (with Coxsackievirus B4; in data set [2]; in data set [3]; in data set [4]; in the data set on Sindbis virus; in the data set with Feline coronavirus) was inactive. Also, the outcome with Vaccinia virus, in the data set with Human alphaherpesvirus 2, in the data set with Human alphaherpesvirus 1, with Punta Toro virus and with Human respirovirus 3 was inactive. In addition, the MCC at 72 h in data set [5] was determined as 100 µM.
